Article PMC10227015, “From a drug repositioning to a structure-based drug design approach to tackle acute lymphoblastic leukemia” (Nature Communications, 2023)
Where two headings read alike, the source gives them in different places.

Assays:
[1] = tested on: NOD-SCID-IL2Rγc null (NSG) mice; assay: In vivo toxicity in NSG mice, 2 weeks, with and without dT; settings: mouse models, 80 mg/kg twice/day
Protocol: To evaluate the in vivo toxicity selected compounds were injected by intraperitoneal (IP) route to 7 weeks-old male Swiss mice (n = 2) at 10, 20, 40, 50, or 80 mg/kg by unique injection. […] Compounds were administered in their hydrochloride salt forms. Mice were then observed closely for the next one hour, then every hour for 8 h. Observations were continued for 72 h for signs of pain or toxicity such as change in the behavior and in the activity in the cage (decreased locomotion) or change in the appearance (curved back, eyes half-closed, bristle hair, hips hollowed out). In vivo toxicity of compound OR0642 at 40 and 80 mg/kg was also assessed in the NOD-SCID-IL2Rγc null (NSG) mice model for 2 weeks in the presence and absence of dT to confirm the safety of the compound. […]. Blood samples were collected and spun at 10,000 × g prior to collecting the plasma supernatants. All plasma samples were frozen at −80 °C before sample processing. 13 μl of each plasma sample was mixed with 33 μl of acetonitrile to precipitate proteins and extract the compound. […] Supernatants were transferred to a microplate to be analyzed by LC–MS/MS. All samples were analyzed with a UHPLC coupled to a Shimadzu LC-MS 8030 triple quadrupole. The solutions of a standard range, prepared with plasma from untreated mice, were analyzed in the same series of injections.

[2] = target: T1, TSSK1B (Homo sapiens, UniProt Q9BXA7); assay: KINOMEscan competition binding; settings: OR0642 1 µM; read-out: %Control
T1 construct: purchased Eurofins DiscoverX (KINOMEscan scanEDGE 97)
Protocol: (§1) Kinome profiling was provided by Eurofins DiscoverX Corporation. Determination of the % control activity for 97 kinases was obtained through an active site-directed competition binding assay that quantitatively measure interactions between compound and kinases. OR0642 was used at 1 μM.
(§2) Supplementary Table 3. KINOMEscan™ Profiling of OR0642. Competition binding assay to quantitatively measure interactions between OR0642 (1 µM) and 97 human kinases and disease relevant mutant variants.
(§3) Target Gene Symbol %Control Target Gene Symbol %Control […]

[3] = target: T2, SRC (Homo sapiens, UniProt P12931); assay: KINOMEscan competition binding; settings: OR0642 1 µM; read-out: %Control
T2 construct: purchased Eurofins DiscoverX (KINOMEscan scanEDGE 97)
Protocol: as §1, §2, §3

[4] = target: T3, RSK2(Kin.Dom.1-N-terminal) (Homo sapiens, UniProt P51812); assay: KINOMEscan competition binding; settings: OR0642 1 µM; read-out: %Control
T3 construct: RSK2(Kin.Dom.1-N-terminal); purchased Eurofins DiscoverX (KINOMEscan scanEDGE 97)
Protocol: as §1, §2, §3

[5] = target: T4, RIOK2 (Homo sapiens, UniProt Q9BVS4); assay: KINOMEscan competition binding; settings: OR0642 1 µM; read-out: %Control
T4 construct: purchased Eurofins DiscoverX (KINOMEscan scanEDGE 97)
Protocol: as §1, §2, §3

[6] = target: T5, PLK1 (Homo sapiens, UniProt P53350); assay: KINOMEscan competition binding; settings: OR0642 1 µM; read-out: %Control
T5 construct: purchased Eurofins DiscoverX (KINOMEscan scanEDGE 97)
Protocol: as §1, §2, §3

[7] = target: T6, SRPK3 (Homo sapiens, UniProt Q9UPE1); assay: KINOMEscan competition binding; settings: OR0642 1 µM; read-out: %Control
T6 construct: purchased Eurofins DiscoverX (KINOMEscan scanEDGE 97)
Protocol: as §1, §2, §3

[8] = target: T7, PLK4 (Homo sapiens, UniProt O00444); assay: KINOMEscan competition binding; settings: OR0642 1 µM; read-out: %Control
T7 construct: purchased Eurofins DiscoverX (KINOMEscan scanEDGE 97)
Protocol: as §1, §2, §3

[9] = target: T8, JAK3(JH1domain-catalytic) (Homo sapiens, UniProt P52333); assay: KINOMEscan competition binding; settings: OR0642 1 µM; read-out: %Control
T8 construct: JAK3(JH1domain-catalytic); purchased Eurofins DiscoverX (KINOMEscan scanEDGE 97)
Protocol: as §1, §2, §3

[10] = target: T9, p38-beta (Homo sapiens, UniProt Q15759); assay: KINOMEscan competition binding; settings: OR0642 1 µM; read-out: %Control
T9 construct: purchased Eurofins DiscoverX (KINOMEscan scanEDGE 97)
Protocol: as §1, §2, §3

[11] = target: T10, RET (Homo sapiens, UniProt P07949); assay: KINOMEscan competition binding; settings: OR0642 1 µM; read-out: %Control
T10 construct: purchased Eurofins DiscoverX (KINOMEscan scanEDGE 97)
Protocol: as §1, §2, §3

[12] = target: T11, TRKA (Homo sapiens, UniProt P04629); assay: KINOMEscan competition binding; settings: OR0642 1 µM; read-out: %Control
T11 construct: purchased Eurofins DiscoverX (KINOMEscan scanEDGE 97)
Protocol: as §1, §2, §3

[13] = target: T12, ULK2 (Homo sapiens, UniProt Q8IYT8); assay: KINOMEscan competition binding; settings: OR0642 1 µM; read-out: %Control
T12 construct: purchased Eurofins DiscoverX (KINOMEscan scanEDGE 97)
Protocol: as §1, §2, §3

[14] = target: T13, RAF1 (Homo sapiens, UniProt P04049); assay: KINOMEscan competition binding; settings: OR0642 1 µM; read-out: %Control
T13 construct: purchased Eurofins DiscoverX (KINOMEscan scanEDGE 97)
Protocol: as §1, §2, §3

[15] = target: T14, MAPKAPK2 (Homo sapiens, UniProt P49137); assay: KINOMEscan competition binding; settings: OR0642 1 µM; read-out: %Control
T14 construct: purchased Eurofins DiscoverX (KINOMEscan scanEDGE 97)
Protocol: as §1, §2, §3

[16] = target: T15, JAK2(JH1domain-catalytic) (Homo sapiens, UniProt O60674); assay: KINOMEscan competition binding; settings: OR0642 1 µM; read-out: %Control
T15 construct: JAK2(JH1domain-catalytic); purchased Eurofins DiscoverX (KINOMEscan scanEDGE 97)
Protocol: as §1, §2, §3

[17] = target: T16, SNARK (Homo sapiens, UniProt Q9H093); assay: KINOMEscan competition binding; settings: OR0642 1 µM; read-out: %Control
T16 construct: purchased Eurofins DiscoverX (KINOMEscan scanEDGE 97)
Protocol: as §1, §2, §3

[18] = tested on: PDX UPNT730; assay: Ex vivo testing on PDX samples (viability, flow cytometry, 72 h), with or without OP9-DL1 monolayer; format: cell-based, human; settings: for viability at 12 µM / viability at 37 µM / viability at 111 µM / viability at 333 µM / viability at 1000 µM / viability at 3000 µM: Homo sapiens, read-out: Cell viability, Mean (% viab); for viability at 12 µM: dT 12 µM; for viability at 37 µM: dT 37 µM; for viability at 111 µM: dT 111 µM; for viability at 333 µM: dT 333 µM; for viability at 1000 µM: dT 1000 µM; for viability at 3000 µM: dT 3000 µM
Source text: Bone marrow-infiltrating blasts from terminally mice bearing PDX as stated above were collected as established before. Extensive analysis (immunophenotype and molecular analysis) of matched primary and PDX samples used in the study are shown in Supplementary Table 7, showing that they remain stable. Briefly, after euthanasia, bone marrows from tibiae, hips, femurs, and vertebrae were isolated and blasts collected for subsequent ex vivo experiments. All samples used contained ≥90% blasts as determined by flow cytometry. For the cytotoxic evaluation of OR0642, blasts were then stained with CellTraceTM Violet (CTV, Thermo Fisher Scientific, C34557) prior seeding at 10,000 cells into 96-well plates under normal conditions or pre-plated with OP9-DL1 cells. Cells were cultured in RPMI 1640 supplemented with 20% fetal bovine serum, 50 µg/ml streptomycin, 50 UI penicillin, 4 mM L-glutamine, and a cocktail of human cytokines as previously established (50 ng/ml human stem cell factor, 20 ng/ml hFLT3-L, 10 ng/ml hIL-7 and 20 nM insulin (Miltenyi Biotec))[28]. […] Rescue by dC supplementation (1 µM) was also evaluated. OR0642 was then tested alone, or combined with dT or dT + dC at two concentrations (0.25 and 0.5 µM). Cell viability was evaluated by flow cytometry 72 h post-treatment. Proliferation indexes were calculated using the detection of CTV in the control replicates (DMSO) and the proliferation modeling tool of FlowJo™ Software 10.7.1 (BD Life Sciences). A control peak of undivided CTV-stained cells was systematically used to set the undivided fraction.

T3 sequence (P51812 1-397 limits assumed): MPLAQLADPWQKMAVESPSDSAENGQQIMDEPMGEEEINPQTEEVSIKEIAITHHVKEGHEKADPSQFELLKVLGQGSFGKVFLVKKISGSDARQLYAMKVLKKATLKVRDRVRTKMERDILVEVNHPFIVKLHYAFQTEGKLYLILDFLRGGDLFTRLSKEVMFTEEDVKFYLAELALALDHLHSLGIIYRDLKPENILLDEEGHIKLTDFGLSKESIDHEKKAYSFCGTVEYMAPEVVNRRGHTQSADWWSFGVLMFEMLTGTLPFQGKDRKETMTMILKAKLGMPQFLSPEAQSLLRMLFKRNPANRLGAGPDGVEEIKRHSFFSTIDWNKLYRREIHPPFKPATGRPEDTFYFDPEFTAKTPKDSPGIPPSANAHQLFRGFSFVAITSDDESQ
T1 sequence (Q9BXA7 whole entry): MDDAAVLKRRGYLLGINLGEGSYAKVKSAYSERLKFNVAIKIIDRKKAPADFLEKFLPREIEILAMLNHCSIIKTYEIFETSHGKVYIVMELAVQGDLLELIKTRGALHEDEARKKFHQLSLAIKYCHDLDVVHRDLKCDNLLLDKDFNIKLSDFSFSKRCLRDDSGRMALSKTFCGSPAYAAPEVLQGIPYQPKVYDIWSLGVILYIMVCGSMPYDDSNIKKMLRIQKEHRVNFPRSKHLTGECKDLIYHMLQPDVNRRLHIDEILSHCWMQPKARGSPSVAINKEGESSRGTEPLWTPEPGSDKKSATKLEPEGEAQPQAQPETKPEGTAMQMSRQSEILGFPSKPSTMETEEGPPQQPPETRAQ
T16 sequence (Q9H093 whole entry): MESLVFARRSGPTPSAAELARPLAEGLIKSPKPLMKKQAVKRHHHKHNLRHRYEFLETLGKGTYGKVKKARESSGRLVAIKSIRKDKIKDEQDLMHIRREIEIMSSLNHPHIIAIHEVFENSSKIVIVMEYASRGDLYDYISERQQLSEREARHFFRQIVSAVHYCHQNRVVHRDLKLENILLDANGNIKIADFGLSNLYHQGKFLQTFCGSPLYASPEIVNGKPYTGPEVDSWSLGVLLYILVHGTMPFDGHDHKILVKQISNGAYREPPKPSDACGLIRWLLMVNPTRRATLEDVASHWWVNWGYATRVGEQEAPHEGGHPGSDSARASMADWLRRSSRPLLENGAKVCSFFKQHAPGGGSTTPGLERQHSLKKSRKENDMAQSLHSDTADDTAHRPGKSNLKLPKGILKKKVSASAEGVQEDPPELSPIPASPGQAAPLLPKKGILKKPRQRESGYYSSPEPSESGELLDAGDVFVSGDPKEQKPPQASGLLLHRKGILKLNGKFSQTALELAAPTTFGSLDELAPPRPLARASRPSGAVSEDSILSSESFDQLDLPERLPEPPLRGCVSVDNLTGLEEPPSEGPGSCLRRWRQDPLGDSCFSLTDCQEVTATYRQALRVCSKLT
T5 sequence (P53350 whole entry): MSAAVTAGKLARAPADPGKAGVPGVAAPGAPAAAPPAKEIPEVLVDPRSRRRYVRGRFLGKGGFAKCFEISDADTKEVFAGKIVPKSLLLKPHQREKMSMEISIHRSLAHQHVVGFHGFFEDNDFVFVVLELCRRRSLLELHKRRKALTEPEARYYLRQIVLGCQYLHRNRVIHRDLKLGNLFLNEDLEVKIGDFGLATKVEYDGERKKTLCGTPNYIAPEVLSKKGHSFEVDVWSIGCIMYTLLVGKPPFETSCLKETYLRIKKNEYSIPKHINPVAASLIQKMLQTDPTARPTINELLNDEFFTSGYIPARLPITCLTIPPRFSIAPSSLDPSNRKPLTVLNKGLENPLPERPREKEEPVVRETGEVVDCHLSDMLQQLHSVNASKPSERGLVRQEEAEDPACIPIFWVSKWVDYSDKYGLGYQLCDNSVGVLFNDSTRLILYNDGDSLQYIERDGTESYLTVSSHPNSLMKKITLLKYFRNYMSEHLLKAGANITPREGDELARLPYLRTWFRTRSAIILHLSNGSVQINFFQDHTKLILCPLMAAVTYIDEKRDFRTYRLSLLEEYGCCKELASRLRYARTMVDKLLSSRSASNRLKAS
T11 sequence (P04629 33-796): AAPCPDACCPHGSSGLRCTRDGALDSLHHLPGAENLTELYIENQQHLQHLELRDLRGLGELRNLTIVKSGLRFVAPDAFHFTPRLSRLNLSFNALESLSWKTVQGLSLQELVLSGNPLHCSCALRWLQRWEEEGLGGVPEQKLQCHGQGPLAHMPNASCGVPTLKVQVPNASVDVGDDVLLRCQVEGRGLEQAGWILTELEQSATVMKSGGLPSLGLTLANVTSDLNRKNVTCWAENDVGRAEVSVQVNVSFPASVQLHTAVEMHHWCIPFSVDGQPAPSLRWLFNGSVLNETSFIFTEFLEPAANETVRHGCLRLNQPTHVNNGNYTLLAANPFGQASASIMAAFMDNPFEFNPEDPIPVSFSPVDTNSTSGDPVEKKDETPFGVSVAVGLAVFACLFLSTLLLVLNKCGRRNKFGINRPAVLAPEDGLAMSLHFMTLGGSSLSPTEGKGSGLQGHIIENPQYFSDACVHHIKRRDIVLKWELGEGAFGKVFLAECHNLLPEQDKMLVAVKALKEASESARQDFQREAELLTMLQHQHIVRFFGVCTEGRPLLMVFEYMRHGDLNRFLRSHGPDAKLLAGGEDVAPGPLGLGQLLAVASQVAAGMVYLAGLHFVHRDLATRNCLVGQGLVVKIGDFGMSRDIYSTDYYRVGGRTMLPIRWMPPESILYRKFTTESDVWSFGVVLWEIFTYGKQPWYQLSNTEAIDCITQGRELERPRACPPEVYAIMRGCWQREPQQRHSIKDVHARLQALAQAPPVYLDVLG
T10 sequence (P07949 29-1114): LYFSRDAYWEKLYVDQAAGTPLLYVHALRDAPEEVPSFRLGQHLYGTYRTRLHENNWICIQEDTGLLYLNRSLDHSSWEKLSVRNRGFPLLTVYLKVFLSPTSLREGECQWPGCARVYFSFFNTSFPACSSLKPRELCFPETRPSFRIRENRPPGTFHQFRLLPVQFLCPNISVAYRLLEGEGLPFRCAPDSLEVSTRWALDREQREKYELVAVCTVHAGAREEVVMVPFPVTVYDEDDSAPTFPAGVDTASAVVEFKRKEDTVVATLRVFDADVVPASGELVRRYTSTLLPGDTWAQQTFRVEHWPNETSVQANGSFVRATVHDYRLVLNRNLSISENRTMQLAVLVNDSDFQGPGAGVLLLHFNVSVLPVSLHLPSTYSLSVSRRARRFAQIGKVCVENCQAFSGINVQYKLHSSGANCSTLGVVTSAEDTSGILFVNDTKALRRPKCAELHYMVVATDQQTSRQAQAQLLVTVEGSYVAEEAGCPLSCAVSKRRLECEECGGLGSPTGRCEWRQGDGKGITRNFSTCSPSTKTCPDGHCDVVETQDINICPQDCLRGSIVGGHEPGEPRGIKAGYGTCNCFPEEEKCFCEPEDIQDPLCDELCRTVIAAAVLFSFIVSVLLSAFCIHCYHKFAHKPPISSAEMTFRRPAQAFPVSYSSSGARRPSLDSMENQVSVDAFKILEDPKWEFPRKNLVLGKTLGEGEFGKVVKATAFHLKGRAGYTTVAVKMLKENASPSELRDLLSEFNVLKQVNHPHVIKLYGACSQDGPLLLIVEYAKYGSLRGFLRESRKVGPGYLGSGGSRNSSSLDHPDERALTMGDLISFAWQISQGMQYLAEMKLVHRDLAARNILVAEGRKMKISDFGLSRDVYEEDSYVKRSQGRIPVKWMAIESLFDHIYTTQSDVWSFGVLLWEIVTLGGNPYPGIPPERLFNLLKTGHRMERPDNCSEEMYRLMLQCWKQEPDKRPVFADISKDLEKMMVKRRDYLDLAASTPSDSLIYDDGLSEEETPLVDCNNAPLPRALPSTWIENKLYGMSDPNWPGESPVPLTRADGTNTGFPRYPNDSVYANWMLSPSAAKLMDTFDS
T7 sequence (O00444 whole entry): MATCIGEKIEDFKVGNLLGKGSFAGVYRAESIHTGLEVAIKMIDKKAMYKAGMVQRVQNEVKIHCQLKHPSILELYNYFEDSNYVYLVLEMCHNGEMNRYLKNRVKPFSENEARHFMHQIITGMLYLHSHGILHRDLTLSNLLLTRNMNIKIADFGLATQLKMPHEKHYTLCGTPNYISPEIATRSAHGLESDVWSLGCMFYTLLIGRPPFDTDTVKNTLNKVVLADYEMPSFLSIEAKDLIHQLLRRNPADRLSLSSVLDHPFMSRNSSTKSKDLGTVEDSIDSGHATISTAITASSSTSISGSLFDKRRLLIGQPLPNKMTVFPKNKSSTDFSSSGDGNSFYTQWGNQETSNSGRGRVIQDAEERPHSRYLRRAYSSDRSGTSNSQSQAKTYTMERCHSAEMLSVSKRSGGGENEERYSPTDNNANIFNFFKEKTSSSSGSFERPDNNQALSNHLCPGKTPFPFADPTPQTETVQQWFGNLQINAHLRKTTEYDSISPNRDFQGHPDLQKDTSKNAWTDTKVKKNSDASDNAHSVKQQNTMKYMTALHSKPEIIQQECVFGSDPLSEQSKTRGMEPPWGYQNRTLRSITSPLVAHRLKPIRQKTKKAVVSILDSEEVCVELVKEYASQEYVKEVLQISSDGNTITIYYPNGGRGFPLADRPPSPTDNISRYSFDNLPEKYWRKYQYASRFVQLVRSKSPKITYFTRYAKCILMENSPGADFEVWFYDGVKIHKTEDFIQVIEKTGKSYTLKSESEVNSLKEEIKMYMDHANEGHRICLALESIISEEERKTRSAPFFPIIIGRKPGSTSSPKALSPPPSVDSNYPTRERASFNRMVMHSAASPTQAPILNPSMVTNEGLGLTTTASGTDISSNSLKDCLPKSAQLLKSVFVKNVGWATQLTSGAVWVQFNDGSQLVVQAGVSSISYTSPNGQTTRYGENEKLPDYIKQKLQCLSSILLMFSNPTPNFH

`CCCN(c1nc(-c2nc(N)cc(N)n2)cs1)c1cc(-c2ccc(S(=O)(=O)N3CCN(C)CC3)cc2C(F)(F)F)ccc1C` [OR0642] was tested, and the in vivo tolerance [1] was “well tolerated”, the remaining binding at 1 µM [2] was 100% and the remaining binding at 1 µM [3] was 92%. For the same molecule, the remaining binding at 1 µM [4] was 100%, the remaining binding at 1 µM [5] was 98% and the remaining binding at 1 µM [6] was 90%. It also gave a remaining binding at 1 µM [7] of 93%, a remaining binding at 1 µM [8] of 81% and a remaining binding at 1 µM [9] of 97%. For the same molecule, the remaining binding at 1 µM [10] was 91%, the remaining binding at 1 µM [11] was 100% and the remaining binding at 1 µM [12] was 100%. For the same molecule, the remaining binding at 1 µM [13] was 95%, the remaining binding at 1 µM [14] was 88% and the remaining binding at 1 µM [15] was 100%. It also gave a remaining binding at 1 µM [16] of 100% and a remaining binding at 1 µM [17] of 88%.
`Cc1cn([C@H]2C[C@H](O)[C@@H](CO)O2)c(=O)[nH]c1=O` [dT, thymidine] showed a viability at 12 µM ([18]; UPNT730 + OP9-DL1) of 100%, a viability at 37 µM ([18]; UPNT730 + OP9-DL1) of 96.3% and a viability at 111 µM ([18]; UPNT730 + OP9-DL1) of 86.4%. The viability at 333 µM ([18]; UPNT730 + OP9-DL1) was 82%, the viability at 1000 µM ([18]; UPNT730 + OP9-DL1) was 72.2% and the viability at 3000 µM ([18]; UPNT730 + OP9-DL1) was 72.9%. It also gave a viability at 12 µM ([18]; UPNT730) of 100%, a viability at 37 µM ([18]; UPNT730) of 106% and a viability at 111 µM ([18]; UPNT730) of 107%. It also gave a viability at 333 µM ([18]; UPNT730) of 109%, a viability at 1000 µM ([18]; UPNT730) of 102% and a viability at 3000 µM ([18]; UPNT730) of 105%. For the same molecule, the “Response at dT100 µM” value ([18]; PDX 730, dT 100 µM) was 17 and the “sensitivity” value ([18]; proliferative conditions (OP9-DL1 monolayer)) was “sensitive”.
